From article PMC3259047 (Molecular Neurodegeneration, 2011)
Like-named read-outs stand apart in the source and are kept apart here.

Assays:
[1] = test system: CAA amyloid deposits and neuritic plaques; assay: In vivo live imaging through closed cranial window in aged Tg2576 mice; conditions: 6 mg/kg i.p. per legend and methods
[2] = target: CAA deposits (cerebrovascular Aβ aggregates) (Homo sapiens, UniProt P05067); assay: In situ saturation binding assay in fixed Tg2576 brain sections, fluorescence on CAA; parameters: species or system Tg2576 mice; conditions: 16 month-old Tg2576 fixed brain sections, intrinsic fluorescence, 30 min room temperature; read-out: Amyloid binding affinity (KD) on CAA (converted)
Description: (§1) Figure 5 In situ binding assay in Tg2576 brain sections. Sixteen month-old Tg2576 mice were perfused with PBS and brains were post-fixed in 4% paraformaldehyde. Coronal brain sections (40 μm thick) were washed three times with PBS and incubated with various concentrations of test compounds (4 sections/concentration; 6 concentrations/compound) at room temperature for 30 min. Brain sections were washed twice with PBS and 50% ethanol in PBS then cover-slipped. […] Scale bar: 100 μm. Fluorescent images of the sensorimotor cortex were taken and the fluorescent intensity on CAA (B) and neuritic plaques (C) was quantified. Saturation binding curves were plotted to obtain the binding affinity (KD) values (see Table 2).

neuritic plaques = target: T1, neuritic plaques (Homo sapiens, UniProt P05067); assay: In situ saturation binding assay in fixed Tg2576 brain sections, fluorescence on neuritic plaques; parameters: species or system Tg2576 mice; conditions: 16 month-old Tg2576 fixed brain sections, intrinsic fluorescence, 30 min room temperature; read-out: Amyloid binding affinity (KD) on neuritic plaques
T1 construct: Aβ1-42 (the predominant species in neuritic plaques); from tissue; host or cells: brain of 16-month-old Tg2576 transgenic mice
Description: as §1

[3] = test system: cerebrovascular Aβ deposits and neuritic plaques; assay: Fluorescent staining of fixed aged Tg2576 brain sections; type: binding; conditions: fixed brain sections of aged Tg2576 mice; 1 μM resorufin, 2 μM methoxy-X34
Description: Scale bars in A-D: 100 μm.
Tg2576 and littermate wild-type mice at 12-16 months of age were anesthetized with isoflurane and transcardially perfused with PBS. Brains were removed, post-fixed overnight in 4% paraformaldehyde in 0.1 M phosphate buffer (pH 7.4) at 4°C, and preserved in 30% sucrose in 0.1 M phosphate buffer at 4°C. Brains were sectioned coronally (40 μm) on a freezing sliding microtome as described previously. […] Brain sections were washed three times with PBS and once with 50% ethanol in PBS for 5 min each. After three more PBS washes, brain sections were mounted on a slide glass and cover-slipped with Vectashield mounting media (Vector laboratories, Burlingame, CA). Fluorescent staining was visualized using a Nikon Eclipse ME600 digital video microscopy system (Nikon Instruments Inc., Melville, NY) and MetaMorph imaging software (Molecular Devices, Sunnyvale, CA). Cross-sectional area covered by CAA vessels and parenchymal plaques were quantified using ImageJ software (National Institutes of Health, Bethesda, MD) as previously described.

[4] = parameters: method as in Klunk et. al. [51]; conditions: ref Klunk et. al. [51]; cited from earlier work
[5] = Octanol-water partition coefficient (logPoct) by fluorometry; type: physicochemical; conditions: n-octanol/distilled water, 100 μM, room temperature, mean ± S.E.M, three independent experiments
Description: Octanol-water partition coefficients (logPoct) were determined as described previously with modification. […] The samples were incubated at room temperature with a brief vortex every 5 min for 60 minutes. After centrifugation at 2,000 g for 10 min, octanol and water layers were separately transferred to microcentrifuge tubes. Concentrations were determined by fluorometry at an excitation wave length of 530/25 nm and an emission wave length of 590/30 nm using an ELISA reader (Biotek, Winooski, VT).

[6] = test system: 3D6-positive cerebral arterioles and neuritic plaques; assay: Fluorescent staining of paraffin-embedded human AD brain sections (3D6 co-labeling); type: binding; conditions: human AD cortical sections, 1 μM resorufin

Sequence of CAA deposits (cerebrovascular Aβ aggregates) (P05067 672-711 limits assumed): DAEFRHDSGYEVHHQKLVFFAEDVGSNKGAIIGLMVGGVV
T1 sequence (P05067 672-713 limits assumed): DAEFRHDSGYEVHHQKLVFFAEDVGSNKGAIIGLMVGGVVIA

Kd [2]	Kd (neuritic plaques)	logPoct [5]	logP [5]	Crossing of the BBB (CAA deposits; mouse, in vivo)	Structure (SMILES)	Live fluorescent labeling of amyloid deposits by methoxy-X04 [1]	Binding to CAA-laden vessels versus neuritic plaques (fluorescent staining) [3]	logPoct [4]	logPoct ([5]; listed as benzyloxy-resorufin)	Staining of 3D6-positive amyloid deposits [6]	Visualization of CAA deposits after intravenous administration (CAA deposits; i.v. up to 50 mg/kg, aged Tg2576 mice (15 mo))
–	–	–	–	–	COc1cc(/C=C/c2ccc(O)cc2)ccc1/C=C/c1ccc(O)cc1 [methoxy-X04]	labeled Aβ aggregates in both cerebral arteries and parenchymal neuritic plaques	–	–	–	–	–
325 nM	0.219 µM	–	–	–	COc1cc(C=Cc2ccc(O)c(C(=O)O)c2)ccc1C=Cc1ccc(O)c(C(=O)O)c1 [Methoxy-X34, reference compound]	–	visualized both cerebrovascular Aβ deposits and neuritic plaques	0.19	–	–	–
–	–	0.43	0.427 ± 0.036	failed to cross the BBB	O=c1ccc2nc3ccc(O)cc3oc-2c1 [Resorufin, 7-hydroxy-3H-phenoxazin-3-one]	–	strongly bind CAA-laden cerebral arterioles but not parenchymal neuritic plaques	–	–	marked resorufin-positive staining was noted in the 3D6-positive cerebral arterioles	failed to visualize CAA deposits
247 ± 135 nM	> 10 µM	1.94	1.94 ± 0.137	–	CCOc1ccc2nc3ccc(=O)cc-3oc2c1 [Ethoxyresorufin, ethoxy-resorufin]	–	preferentially bound CAA-laden vessels but not neuritic plaques	–	–	–	–

Structure (SMILES)	Kd [2]	Kd (neuritic plaques)	logPoct [5]	logP [5]	Crossing of the BBB (CAA deposits; mouse, in vivo)	Live fluorescent labeling of amyloid deposits by methoxy-X04 [1]	Binding to CAA-laden vessels versus neuritic plaques (fluorescent staining) [3]	logPoct [4]	logPoct ([5]; listed as benzyloxy-resorufin)	Staining of 3D6-positive amyloid deposits [6]	Visualization of CAA deposits after intravenous administration (CAA deposits; i.v. up to 50 mg/kg, aged Tg2576 mice (15 mo))
O=c1ccc2nc3ccc(OCc4ccccc4)cc3oc-2c1 [Benzyloxyresorufin, benzyloxy-resorufin]	473 ± 82 nM	> 10 µM	2.206 ± 0.104	–	–	–	preferentially bound CAA-laden vessels but not neuritic plaques	–	2.21	–	–
